Results reported in patent publication US20250115583A1, “BICYCLIC INDAZOLE GLUCOCORTICOID RECEPTOR ANTAGONISTS” (Corcept Therapeutics Incorporated, priority 2021, published 2025).

Biological target: glucocorticoid receptor (Homo sapiens (Human), UniProt P04150)
Assay: HepG2 TAT assay: inhibition of dexamethasone-induced tyrosine aminotransferase (TAT) activity
Type: cell-based
Conditions: HepG2 cells, challenge of 100 nM dexamethasone, 18-24 hr; IC50 converted to Ki by Cheng and Prusoff equation
Method in brief: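 Cells lysed 15 min at 4 °C; TAT enzyme reaction 2 h at 37 °C, stopped with KOH, 30 min further at 37 °C. Inhibition fitted to 4-parameter logistic.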

Sequence of glucocorticoid receptor (P04150 whole entry): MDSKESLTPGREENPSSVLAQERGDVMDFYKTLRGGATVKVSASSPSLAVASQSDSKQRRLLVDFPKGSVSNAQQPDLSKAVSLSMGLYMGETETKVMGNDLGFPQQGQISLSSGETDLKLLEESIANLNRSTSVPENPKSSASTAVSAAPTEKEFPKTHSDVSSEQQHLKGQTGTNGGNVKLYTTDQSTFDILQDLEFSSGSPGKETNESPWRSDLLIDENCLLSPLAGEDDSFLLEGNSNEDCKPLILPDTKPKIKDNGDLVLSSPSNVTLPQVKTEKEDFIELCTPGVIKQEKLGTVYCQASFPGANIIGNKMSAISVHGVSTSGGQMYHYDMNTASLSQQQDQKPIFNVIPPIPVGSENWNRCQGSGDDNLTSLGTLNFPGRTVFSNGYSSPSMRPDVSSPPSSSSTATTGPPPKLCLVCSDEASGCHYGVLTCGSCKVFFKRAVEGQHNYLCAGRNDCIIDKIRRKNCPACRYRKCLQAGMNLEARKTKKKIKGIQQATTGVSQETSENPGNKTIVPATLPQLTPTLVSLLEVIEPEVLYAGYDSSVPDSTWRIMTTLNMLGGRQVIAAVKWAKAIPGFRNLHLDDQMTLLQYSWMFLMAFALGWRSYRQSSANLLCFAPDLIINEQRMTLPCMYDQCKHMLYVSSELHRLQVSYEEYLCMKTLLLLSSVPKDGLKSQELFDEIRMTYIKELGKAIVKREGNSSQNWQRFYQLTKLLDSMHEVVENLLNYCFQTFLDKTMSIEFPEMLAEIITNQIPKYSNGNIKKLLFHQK

Point of comparison: `COC1(c2ccccc2)CC2CN(C(=O)OC(C)(C)C)CC2(c2cc3cnn(-c4ccc(F)cc4)c3cc2C)C1` (stereo not shown) [Example 18, tert-butyl 3a-(1-(4-fluorophenyl)-6-methyl-1H-indazol-5-yl)-5-methoxy-5-phenylhexahydrocyclopenta[c]pyrrole-2(1H)-carboxylate], Ki 44 nM. Against it:
- COC1(c2cccc(C)c2)CC2CN(S(=O)(=O)c3cnn(C)c3)CC2(c2cc3cnn(-c4ccc(F)cc4)c3cc2C)C1 (stereo not shown) [Example 14] — 2.5-fold higher, 110 nM
- Cc1cc2c(cnn2-c2ccc(F)cc2)cc1C12CN(S(=O)(=O)c3cnn(C)c3)CC1CC(O)(c1ccccn1)C2 (stereo not shown) [Example 15] — 7.5-fold higher, 330 nM
- CC#CC1(OC)CC2CN(S(=O)(=O)c3cnn(C)c3)CC2(c2cc3cnn(-c4ccc(F)cc4)c3cc2C)C1 (stereo not shown) [Example 16] — 6.1-fold higher, 270 nM
- Cc1cc2c(cnn2-c2ccc(F)cc2)cc1C12CN(C(=O)OC(C)(C)C)CC1CC(O)(c1ccccc1)C2 (stereo not shown) [Example 17, tert-butyl 3a-(1-(4-fluorophenyl)-6-methyl-1H-indazol-5-yl)-5-hydroxy-5-phenylhexahydrocyclopenta[c]pyrrole-2(1H)-carboxylate] — within 1.5-fold, 42 nM
- CCn1cc(S(=O)(=O)N2C[C@@H]3C[C@@](OC)(c4ccccc4)C[C@]3(c3cc4cnn(-c5ccc(F)cc5)c4cc3C)C2)cn1 [Example 21] — within 1.5-fold, 37 nM
- CCCn1cc(S(=O)(=O)N2C[C@@H]3C[C@](OC)(c4ccccc4)C[C@]3(c3cc4cnn(-c5ccc(F)cc5)c4cc3C)C2)cn1 [Example 22] — within 1.5-fold, 32 nM
- CO[C@@]1(c2ccccc2)C[C@H]2CN(S(=O)(=O)c3cnn(C(C)C)n3)C[C@@]2(c2cc3cnn(-c4ccc(F)cc4)c3cc2C)C1 [Example 23] — within 1.5-fold, 30 nM
- CO[C@@]1(c2ccccc2)C[C@H]2CN(S(=O)(=O)C3CC3)C[C@@]2(c2cc3cnn(-c4ccc(F)cc4)c3cc2C)C1 [Example 24] — within 1.5-fold, 32 nM
- CO[C@]1(c2ccccc2)C[C@@H]2CN(S(=O)(=O)c3cncc(F)c3)C[C@]2(c2cc3cnn(-c4ccc(F)cc4)c3cc2C)C1 [Example 25] — within 1.5-fold, 52 nM
- CCn1ncc(S(=O)(=O)N2CC3CC(OC)(c4ccccc4)CC3(c3cc4cnn(-c5ccc(F)cc5)c4cc3C)C2)n1 (stereo not shown) [Example 26] — within 1.5-fold, 53 nM
- CCCn1ncc(S(=O)(=O)N2CC3CC(OC)(c4ccccc4)CC3(c3cc4cnn(-c5ccc(F)cc5)c4cc3C)C2)n1 (stereo not shown) [Example 27] — 1.8-fold higher, 78 nM
- COC1(c2ccccc2)CC2CN(S(=O)(=O)C3(C)CC3)CC2(c2cc3cnn(-c4ccc(F)cc4)c3cc2C)C1 (stereo not shown) [Example 28] — within 1.5-fold, 32 nM
- COC1(c2ccccc2)CC2CN(S(=O)(=O)C(C)C)CC2(c2cc3cnn(-c4ccc(F)cc4)c3cc2C)C1 (stereo not shown) [Example 30] — within 1.5-fold, 32 nM
- COC1(c2ccccc2)CC2CN(S(=O)(=O)c3ccn(C)n3)CC2(c2cc3cnn(-c4ccc(F)cc4)c3cc2C)C1 (stereo not shown) [Example 31] — 3-fold higher, 130 nM
- CO[C@]1(c2ccccc2)C[C@@H]2CN(C(C)=O)C[C@]2(c2cc3cnn(-c4ccc(F)cc4)c3cc2C)C1 [Example 33] — 5-fold higher, 220 nM
- COC1CC2CN(S(C)(=O)=O)CC2(c2cc3cnn(-c4ccc(F)cc4)c3cc2C)C1 (stereo not shown) [Example 34, 1-(4-fluorophenyl)-5-(5-methoxy-2-(methylsulfonyl)hexahydrocyclopenta[c]pyrrol-3a(1H)-yl)-6-methyl-1H-indazole] — 18-fold higher, 800 nM
- Cc1cc2c(cnn2-c2ccc(F)cc2)cc1C12CC(OCc3ccccc3)CC1CN(C(=O)OC(C)(C)C)C2 (stereo not shown) [Example 35, tert-butyl 5-(benzyloxy)-3a-(1-(4-fluorophenyl)-6-methyl-1H-indazol-5-yl)hexahydrocyclopenta[c]pyrrole-2(1H)-carboxylate] — 3.6-fold higher, 160 nM
- Cc1cc2c(cnn2-c2ccc(F)cc2)cc1C12CC(Oc3ccccc3)CC1CN(S(C)(=O)=O)C2 (stereo not shown) [Example 36, 1-(4-fluorophenyl)-6-methyl-5-(2-(methylsulfonyl)-5-phenoxyhexahydrocyclopenta[c]pyrrol-3a(1H)-yl)-1H-indazole] — 1.6-fold higher, 72 nM
- Cc1cc2c(cnn2-c2ccc(F)cc2)cc1C12CC(Oc3ccccc3)CC1CN(S(C)(=O)=O)C2 (stereo not shown) [Example 37, 1-(4-fluorophenyl)-6-methyl-5-(2-(methylsulfonyl)-5-phenoxyhexahydrocyclopenta[c]pyrrol-3a(1H)-yl)-1H-indazole] — 3.9-fold higher, 170 nM
- Cc1cc2c(cnn2-c2ccc(F)cc2)cc1C12CC(Oc3ccccc3)CC1CN(S(C)(=O)=O)C2 (stereo not shown) [Example 38] — 2.2-fold higher, 97 nM
- Cc1cc2c(cnn2-c2ccc(F)cc2)cc1C12CC(Oc3ccccc3)CC1CN(C(=O)c1ccccc1)C2 (stereo not shown) [Example 39] — 4.3-fold higher, 190 nM
- CC(=O)N1CC2CC(Oc3ccccc3)CC2(c2cc3cnn(-c4ccc(F)cc4)c3cc2C)C1 (stereo not shown) [Example 40] — 9.5-fold higher, 420 nM
- Cc1cc2c(cnn2-c2ccc(F)cc2)cc1C12CC(Oc3ccccn3)CC1CN(S(C)(=O)=O)C2 (stereo not shown) [Example 41] — 2.5-fold higher, 110 nM
- Cc1cc2c(cnn2-c2ccc(F)cc2)cc1C12CC(Oc3cccnc3)CC1CN(S(C)(=O)=O)C2 (stereo not shown) [Example 42] — 5.9-fold higher, 260 nM
- CCCn1cc(S(=O)(=O)N2CC3CC(Oc4ccccc4)CC3(c3cc4cnn(-c5ccc(F)cc5)c4cc3C)C2)cn1 (stereo not shown) [Example 43] — within 1.5-fold, 41 nM
- Cc1cc2c(cnn2-c2ccc(F)cc2)cc1C12CC(Oc3ccccc3)CC1CN(S(=O)(=O)c1cnn(C)c1)C2 (stereo not shown) [Example 44] — 8.4-fold higher, 370 nM
- Cc1cc2c(cnn2-c2ccc(F)cc2)cc1C12CC(Oc3ccccc3)CC1CN(C(=O)OC(C)(C)C)C2 (stereo not shown) [Example 45] — 2.2-fold higher, 96 nM
- Cc1cc2c(cnn2-c2ccc(F)cc2)cc1C12CC(c3ccccc3)CC1CN(S(C)(=O)=O)C2 (stereo not shown) [Example 46, 1-(4-fluorophenyl)-6-methyl-5-(2-(methylsulfonyl)-5-phenylhexahydrocyclopenta[c]pyrrol-3a(1H)-yl)-1H-indazole] — 2-fold higher, 87 nM
- Cc1cc2c(cnn2-c2ccc(F)cc2)cc1C12CN(S(=O)(=O)c3cnn(C)n3)CC1C2CO (stereo not shown) [Example 47, (1-(1-(4-fluorophenyl)-6-methyl-1H-indazol-5-yl)-3-((2-methyl-2H-1,2,3-triazol-4-yl)sulfonyl)-3-azabicyclo[3.1.0]hexan-6-yl)methanol] — 6.1-fold higher, 270 nM
- Cc1cc2c(cnn2-c2ccc(F)cc2)cc1C12CN(S(=O)(=O)c3cnn(C)n3)CC1C2COc1ccccn1 (stereo not shown) [Example 50, 1-(4-fluorophenyl)-6-methyl-5-(3-((2-methyl-2H-1,2,3-triazol-4-yl)sulfonyl)-6-((pyridin-2-yloxy)methyl)-3-azabicyclo[3.1.0]hexan-1-yl)-1H-indazole] — 15-fold higher, 680 nM
- Cc1cc2c(cnn2-c2ccc(F)cc2)cc1[C@]12CN(S(=O)(=O)c3cnn(C)n3)C[C@H]1[C@@H]2C(=O)NC1CCC1 [Example 60] — 4.5-fold higher, 200 nM
- Cc1cc2c(cnn2-c2ccc(F)cc2)cc1[C@@]12CN(S(=O)(=O)c3cnn(C)n3)C[C@@H]1[C@H]2C(=O)NC1CCCC1 [Example 61] — 4.5-fold higher, 200 nM
- Cc1cc2c(cnn2-c2ccc(F)cc2)cc1[C@]12CN(S(=O)(=O)c3cnn(C)n3)C[C@H]1[C@@H]2C(=O)Nc1ccccc1 [Example 62] — within 1.5-fold, 38 nM
- Cc1cccc(NC(=O)[C@H]2[C@@H]3CN(S(=O)(=O)c4cnn(C)n4)C[C@@]32c2cc3cnn(-c4ccc(F)cc4)c3cc2C)c1 [Example 63] — 2-fold higher, 88 nM
- Cc1cc2c(cnn2-c2ccc(F)cc2)cc1[C@]12CN(S(=O)(=O)c3cnn(C)n3)C[C@H]1[C@@H]2C(=O)N(C)c1ccccc1 [Example 64] — 3-fold higher, 130 nM
- CCNC(=O)[C@@H]1[C@H]2CN(S(=O)(=O)c3cnn(C)n3)C[C@]21c1cc2cnn(-c3ccc(F)cc3)c2cc1C [Example 65] — 9.8-fold higher, 430 nM
